Experimental data published in the supplement of paper PMC12463676, “Small-molecule dissolution of stress granules by redox modulation benefits ALS models” (Nature Chemical Biology, 2025).

Key:
potassium arsenate = compound: O=[As]([O-])(O)O.[K+] [potassium arsenate]; test: thermal stability z-score vs DMSO; higher = more thermally stabilized by treatment; details: HeLa; arsenate concentration 1 mM
Protocol: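 Cellular thermal proteome profiling in HeLa cells treated with 1 mM arsenate for 1 h (DMSO pretreatment), heated to ten temperatures (37-66.3 °C). Soluble protein was quantified by TMT mass spectrometry relative to DMSO controls; the thermal stability score was transformed to a z-score; mean of n = 3 experiments.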

lipoamide = compound: NC(=O)CCCCC1CCSS1 [lipoamide]; test: as above; details: HeLa, lipoamide concentration 100 µM
Protocol: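 Cellular thermal proteome profiling in HeLa cells. Cells were treated with 100 µM lipoamide for 1 h, with or without 1 mM arsenate for a further 1 h, then heated to ten temperatures (37-66.3 °C), and soluble protein was quantified by TMT mass spectrometry relative to 0.1% DMSO controls. The thermal stability score (sum of log2 fold changes minus the abundance score) was transformed to a z-score; mean of n = 3 experiments.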

[1] = arsenate co-treatment: 1 mM arsenate 1 h
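Also: each temperature applied for 3 min, abundance score taken as mean log2 fold change at the two lowest temperatures, z-score obtained by mean subtraction and division by SD.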

Sequence of UniProt Q15043 (Q15043 whole entry): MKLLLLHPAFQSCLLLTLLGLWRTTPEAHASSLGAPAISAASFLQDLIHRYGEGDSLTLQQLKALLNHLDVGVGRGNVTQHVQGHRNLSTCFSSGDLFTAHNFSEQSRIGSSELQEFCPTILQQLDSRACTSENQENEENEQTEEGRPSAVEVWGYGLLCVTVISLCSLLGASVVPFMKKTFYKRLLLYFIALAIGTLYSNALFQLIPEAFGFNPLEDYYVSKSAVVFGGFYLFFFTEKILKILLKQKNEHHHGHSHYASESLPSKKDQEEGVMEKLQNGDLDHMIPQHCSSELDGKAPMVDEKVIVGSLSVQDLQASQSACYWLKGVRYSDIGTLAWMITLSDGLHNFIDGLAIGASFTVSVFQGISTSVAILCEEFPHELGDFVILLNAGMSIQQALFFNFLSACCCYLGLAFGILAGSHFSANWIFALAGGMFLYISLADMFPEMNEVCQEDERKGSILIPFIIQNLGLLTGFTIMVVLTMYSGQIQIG
Sequence of UniProt Q8IY18 (Q8IY18 whole entry): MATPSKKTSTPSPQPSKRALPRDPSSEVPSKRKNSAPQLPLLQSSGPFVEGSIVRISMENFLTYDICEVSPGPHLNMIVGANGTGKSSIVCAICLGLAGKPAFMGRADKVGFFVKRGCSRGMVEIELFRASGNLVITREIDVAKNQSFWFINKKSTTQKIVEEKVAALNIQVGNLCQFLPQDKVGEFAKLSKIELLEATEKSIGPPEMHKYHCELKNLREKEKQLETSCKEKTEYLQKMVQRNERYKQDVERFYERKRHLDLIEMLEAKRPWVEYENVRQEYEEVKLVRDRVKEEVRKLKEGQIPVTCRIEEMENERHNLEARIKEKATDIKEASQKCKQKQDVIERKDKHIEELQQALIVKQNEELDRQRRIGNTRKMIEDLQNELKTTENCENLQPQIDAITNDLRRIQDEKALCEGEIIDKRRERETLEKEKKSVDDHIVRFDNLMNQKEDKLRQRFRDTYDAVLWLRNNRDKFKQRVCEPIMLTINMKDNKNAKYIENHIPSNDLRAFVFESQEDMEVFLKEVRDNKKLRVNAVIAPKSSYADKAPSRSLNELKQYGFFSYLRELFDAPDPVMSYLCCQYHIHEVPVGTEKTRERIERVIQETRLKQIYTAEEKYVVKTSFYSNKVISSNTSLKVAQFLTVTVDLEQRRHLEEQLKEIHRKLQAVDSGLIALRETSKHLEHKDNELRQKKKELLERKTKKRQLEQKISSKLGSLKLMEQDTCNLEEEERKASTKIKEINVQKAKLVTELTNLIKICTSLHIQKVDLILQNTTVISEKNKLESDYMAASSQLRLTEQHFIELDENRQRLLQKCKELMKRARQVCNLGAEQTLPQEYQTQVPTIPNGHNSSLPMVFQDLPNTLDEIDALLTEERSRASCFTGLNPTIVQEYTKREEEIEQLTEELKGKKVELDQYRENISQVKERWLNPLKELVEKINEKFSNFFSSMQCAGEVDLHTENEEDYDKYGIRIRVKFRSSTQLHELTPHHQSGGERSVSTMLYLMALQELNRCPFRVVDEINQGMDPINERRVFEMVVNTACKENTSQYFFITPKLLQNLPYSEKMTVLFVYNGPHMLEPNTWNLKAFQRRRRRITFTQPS
Sequence of UniProt Q9NWX5 (Q9NWX5 whole entry): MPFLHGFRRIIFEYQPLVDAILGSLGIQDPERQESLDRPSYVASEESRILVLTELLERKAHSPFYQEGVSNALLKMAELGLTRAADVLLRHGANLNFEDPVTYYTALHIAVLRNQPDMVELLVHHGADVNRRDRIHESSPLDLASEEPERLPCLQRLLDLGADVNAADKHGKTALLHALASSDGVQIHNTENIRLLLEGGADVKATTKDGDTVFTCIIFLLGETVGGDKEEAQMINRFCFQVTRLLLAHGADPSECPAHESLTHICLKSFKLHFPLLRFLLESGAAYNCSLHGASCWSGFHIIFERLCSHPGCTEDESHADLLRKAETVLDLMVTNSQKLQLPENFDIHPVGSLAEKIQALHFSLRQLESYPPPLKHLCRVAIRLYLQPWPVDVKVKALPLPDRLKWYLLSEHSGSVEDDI
Sequence of UniProt Q13371 (Q13371 whole entry): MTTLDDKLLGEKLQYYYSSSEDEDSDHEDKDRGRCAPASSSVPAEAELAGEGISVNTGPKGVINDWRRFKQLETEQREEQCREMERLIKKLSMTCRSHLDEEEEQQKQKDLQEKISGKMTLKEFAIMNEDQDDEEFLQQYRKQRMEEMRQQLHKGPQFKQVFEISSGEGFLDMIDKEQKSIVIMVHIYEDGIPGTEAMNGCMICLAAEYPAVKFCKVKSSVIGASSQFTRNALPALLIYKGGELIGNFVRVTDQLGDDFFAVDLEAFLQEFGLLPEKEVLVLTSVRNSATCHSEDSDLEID
Sequence of UniProt Q2TAA5 (Q2TAA5 whole entry): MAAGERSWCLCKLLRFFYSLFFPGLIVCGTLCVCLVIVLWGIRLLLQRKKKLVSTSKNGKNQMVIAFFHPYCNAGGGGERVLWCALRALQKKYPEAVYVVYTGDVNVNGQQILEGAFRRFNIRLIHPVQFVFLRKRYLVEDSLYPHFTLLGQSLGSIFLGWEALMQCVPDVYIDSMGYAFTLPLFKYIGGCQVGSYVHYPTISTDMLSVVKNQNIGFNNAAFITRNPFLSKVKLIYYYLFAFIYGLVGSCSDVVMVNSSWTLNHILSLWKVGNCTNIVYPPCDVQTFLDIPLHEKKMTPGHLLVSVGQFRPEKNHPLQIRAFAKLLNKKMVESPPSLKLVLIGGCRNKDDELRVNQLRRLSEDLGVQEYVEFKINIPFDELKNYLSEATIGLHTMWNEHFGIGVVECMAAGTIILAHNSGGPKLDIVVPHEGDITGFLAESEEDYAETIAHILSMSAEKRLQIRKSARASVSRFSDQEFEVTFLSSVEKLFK
Sequence of UniProt Q9UII4 (Q9UII4 whole entry): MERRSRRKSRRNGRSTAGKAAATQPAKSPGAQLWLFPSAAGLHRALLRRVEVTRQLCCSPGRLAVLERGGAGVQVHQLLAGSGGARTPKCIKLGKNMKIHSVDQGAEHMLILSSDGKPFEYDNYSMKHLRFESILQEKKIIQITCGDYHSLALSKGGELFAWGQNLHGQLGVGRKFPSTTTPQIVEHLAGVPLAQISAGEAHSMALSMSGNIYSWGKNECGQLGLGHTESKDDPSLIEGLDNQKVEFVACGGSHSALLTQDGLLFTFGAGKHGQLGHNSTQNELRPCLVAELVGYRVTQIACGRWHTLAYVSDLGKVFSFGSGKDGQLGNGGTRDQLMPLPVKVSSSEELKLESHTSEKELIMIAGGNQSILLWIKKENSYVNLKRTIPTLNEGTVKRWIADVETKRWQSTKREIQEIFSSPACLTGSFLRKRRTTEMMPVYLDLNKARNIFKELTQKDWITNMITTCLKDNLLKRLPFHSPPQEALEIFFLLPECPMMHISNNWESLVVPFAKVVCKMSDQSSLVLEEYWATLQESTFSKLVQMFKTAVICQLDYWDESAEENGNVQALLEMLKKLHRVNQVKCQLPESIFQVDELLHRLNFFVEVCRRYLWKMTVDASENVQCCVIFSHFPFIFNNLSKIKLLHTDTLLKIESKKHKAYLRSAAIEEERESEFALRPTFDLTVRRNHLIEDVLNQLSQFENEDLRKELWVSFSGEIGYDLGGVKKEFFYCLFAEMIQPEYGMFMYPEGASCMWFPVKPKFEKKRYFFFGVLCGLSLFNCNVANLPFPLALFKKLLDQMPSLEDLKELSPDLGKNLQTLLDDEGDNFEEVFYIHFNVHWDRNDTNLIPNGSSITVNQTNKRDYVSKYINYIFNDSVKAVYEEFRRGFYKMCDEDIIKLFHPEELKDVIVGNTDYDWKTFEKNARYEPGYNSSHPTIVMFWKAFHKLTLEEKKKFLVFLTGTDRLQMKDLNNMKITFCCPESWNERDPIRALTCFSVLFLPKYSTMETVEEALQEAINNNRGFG
Sequence of UniProt O75971 (O75971 whole entry): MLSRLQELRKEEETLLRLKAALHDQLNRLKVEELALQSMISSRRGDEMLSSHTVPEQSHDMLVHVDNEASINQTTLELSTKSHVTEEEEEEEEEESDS
Sequence of UniProt Q9Y2S7 (Q9Y2S7 whole entry): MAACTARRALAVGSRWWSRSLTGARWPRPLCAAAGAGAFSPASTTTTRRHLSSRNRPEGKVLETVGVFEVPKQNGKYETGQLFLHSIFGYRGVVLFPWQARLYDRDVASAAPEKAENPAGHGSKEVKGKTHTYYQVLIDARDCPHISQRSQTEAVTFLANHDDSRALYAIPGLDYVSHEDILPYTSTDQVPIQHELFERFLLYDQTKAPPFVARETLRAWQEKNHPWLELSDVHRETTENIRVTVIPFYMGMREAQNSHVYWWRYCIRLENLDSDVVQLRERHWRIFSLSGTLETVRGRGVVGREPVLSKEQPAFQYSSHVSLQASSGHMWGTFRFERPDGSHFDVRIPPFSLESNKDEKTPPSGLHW
Sequence of UniProt Q96CF2 (Q96CF2 whole entry): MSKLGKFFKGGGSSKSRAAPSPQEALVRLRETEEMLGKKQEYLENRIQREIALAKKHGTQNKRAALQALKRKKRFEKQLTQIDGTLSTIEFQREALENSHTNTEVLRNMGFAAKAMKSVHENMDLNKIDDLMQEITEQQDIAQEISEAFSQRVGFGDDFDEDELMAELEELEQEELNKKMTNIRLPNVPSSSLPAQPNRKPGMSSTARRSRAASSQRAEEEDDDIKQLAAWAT
Sequence of UniProt P61244 (P61244 whole entry): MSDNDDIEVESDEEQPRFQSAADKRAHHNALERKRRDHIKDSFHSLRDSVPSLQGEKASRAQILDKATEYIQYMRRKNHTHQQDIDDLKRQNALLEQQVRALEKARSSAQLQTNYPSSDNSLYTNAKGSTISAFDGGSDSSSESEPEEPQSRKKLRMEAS
Sequence of UniProt Q9BXI9 (Q9BXI9 whole entry): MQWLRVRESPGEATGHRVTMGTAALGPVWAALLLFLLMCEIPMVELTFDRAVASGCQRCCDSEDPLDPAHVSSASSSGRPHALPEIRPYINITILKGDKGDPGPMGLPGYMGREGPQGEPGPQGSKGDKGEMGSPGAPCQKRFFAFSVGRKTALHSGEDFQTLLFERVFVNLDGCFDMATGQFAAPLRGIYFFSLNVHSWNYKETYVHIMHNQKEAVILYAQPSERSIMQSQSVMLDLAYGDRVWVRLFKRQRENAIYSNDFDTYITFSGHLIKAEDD

Target	thermal stability z-score (potassium arsenate)	thermal stability z-score (lipoamide; [1])	thermal stability z-score (lipoamide; arsenate co-treatment: none)
GLA (UniProt P06280)	0.421	-1.1	-0.822
CPSF1 (UniProt Q10570)	-0.123	0.324	0.168
ALG11 (UniProt Q2TAA5)	0.806	0.266	-0.15
SLC39A14 (UniProt Q15043)	-0.236	-0.0157	-0.137
SCAF11 (UniProt Q99590)	-1.02	1.24	0.982
OXSR1 (UniProt O95747)	-0.408	0.903	0.68
RPS6KB1 (UniProt P23443)	0.138	-0.0619	0.679
ACSL1 (UniProt P33121)	0.682	0.922	0.82
TWISTNB (UniProt Q3B726)	-1.57	-0.926	0.0342
SND1 (UniProt Q7KZF4)	-1.08	0.317	0.479
MRPL11 (UniProt Q9Y3B7)	0.0228	-0.211	0.169
RPLP0 (UniProt P05388)	-0.4	1.08	0.341
KIF1B (UniProt O60333)	-0.321	-0.488	-0.322
CPT1A (UniProt P50416)	-0.161	-0.189	-0.268
GAN (UniProt Q9H2C0)	-0.167	0.0625	-0.31
FMR1 (UniProt Q06787)	0.0999	0.0851	0.195
ABCC2 (UniProt Q92887)	-0.256	1.06	1.14
MRPS10 (UniProt P82664)	-0.309	-0.41	-0.358
SNAPC5 (UniProt O75971)	0.158	-0.0463	0.216
HERC5 (UniProt Q9UII4)	0.512	0.139	0.601
SSSCA1 (UniProt O60232)	0.0653	1.33	1.12
AIFM1 (UniProt O95831)	0.186	-0.464	-0.558
CKS2 (UniProt P33552)	0.179	0.199	0.17
HYPK (UniProt Q9NX55)	-0.114	0.716	0.592
BNIP1 (UniProt Q12981)	0.0814	0.261	-0.294
RTN4 (UniProt Q9NQC3)	0.413	0.244	0.711
KIF1C (UniProt O43896)	-0.086	-0.00389	0.0165
FARS2 (UniProt O95363)	-0.701	-0.386	-0.359

Target	thermal stability z-score (potassium arsenate)	thermal stability z-score (lipoamide; [1])	thermal stability z-score (lipoamide; arsenate co-treatment: none)
PDCL (UniProt Q13371)	-0.321	1.05	0.207
L2HGDH (UniProt Q9H9P8)	0.523	-0.736	-0.362
SLC52A2 (UniProt Q9HAB3)	-0.17	0.194	0.164
MAX (UniProt P61244)	2.9	2.75	2.05
MOSPD1 (UniProt Q9UJG1)	-0.354	-0.167	-0.25
TACC3 (UniProt Q9Y6A5)	0.662	-0.148	-0.162
SMC5 (UniProt Q8IY18)	1.83	0.427	-0.175
HNRNPH2 (UniProt P55795)	-0.224	-0.319	-0.0126
TNS2 (UniProt Q63HR2)	-0.101	-0.0104	-0.0152
GPR89A|GPR89B	-0.0938	-0.28	-0.026
C1QTNF6 (UniProt Q9BXI9)	0.794	-0.0299	0.334
RING1 (UniProt Q06587)	-0.0985	-0.0364	0.0555
ABCA2 (UniProt Q9BZC7)	-0.0916	0.0542	0.0722
TPM2 (UniProt P07951)	-0.068	0.624	0.462
PPIL1 (UniProt Q9Y3C6)	-0.489	-0.0684	-0.42
MRPL41 (UniProt Q8IXM3)	0.448	-0.202	0.303
FLAD1 (UniProt Q8NFF5)	-1.16	0.0301	0.05
SEMA3C (UniProt Q99985)	-0.147	-0.0185	-0.402
RPN1 (UniProt P04843)	0.346	-1.47	-0.974
SLC27A2 (UniProt O14975)	0.45	-0.257	-0.484
CFAP97 (UniProt Q9P2B7)	-0.864	-1	-0.518
CHMP4C (UniProt Q96CF2)	-0.789	-0.0236	-0.694
MGME1 (UniProt Q9BQP7)	-0.00686	0.201	0.117
POLDIP2 (UniProt Q9Y2S7)	0.18	-0.119	-0.241
ENY2 (UniProt Q9NPA8)	0.181	0.894	0.42
CTNNAL1 (UniProt Q9UBT7)	0.675	0.0967	0.168
ASB6 (UniProt Q9NWX5)	0.506	0.441	-0.288
